Measurements: patent US5728815A, “Bone and prostate-derived protein factors affecting prostate cancer growth, differentiation, and metastasis” (priority 1994, dated 1998)
Each block holds one molecule with its values, some of them ahead of it.

Tests used:
[1] = system: PSA mRNA in parental LNCaP cells; assay: PSA gene expression, Northern analysis of PSA mRNA; assay type: cell-based, human; settings: for Relative PSA mRNA level: 48 h, control defined as 1.0; for steady-state levels of PSA mRNA: parental LNCaP cells, result in words
Method: FIG. 6A. The effect of PSA gene expression in parental LNCaP cells treated with a variety of growth factors. The parental LNCaP cells were incubated with agents as indicated (control cells were incubated with T medium containing 2% TCM). Forty-eight hours after treatment, total cellular RNA was prepared and 20 μg of total cellular RNA was subjected to Northern analysis. Relative PSA mRNA levels (in parenthesis) were determined by densitometrical quantification, and the control is defined as 1.0; (A) TGF-α 100 (0.98); TGF-α 10 (1.01); TGF-α 1 (1.15); bFGF 100 (1.22); bFGF 10 (1.04); bFGF 1 (0.97); TGF-β 0.01 (0.72); TGF-β 0.1 (0.84); TGF-β 1 (0.53); NGF 1 (1.13); NGF 100 (1.08),
FIG. 6B. The effect of PSA gene expression in parental LNCaP cells treated with a neuropeptide and a variety of α1 and β2-adrenergic agonists. I, bombesin 100 (0.62); bombesin 10 (0.89); II. isoproterenol 100 (0.51); isoproterenol 10 (1.11); isoproterenol 1 (1.07); III. dibutyryl cAMP 0.01 (1.09); dibutyryl cAMP 0.1 (1.11); dibutyryl cAMP 1.0 (1.23); IV. phenylephrine 1 (1.10); phenylephrine 10 (1.08); phenylephrine 100 (1.14).
Total cellular RNA was prepared from frozen tissues by the 4M guanidinium thiocyanate extraction method (Chomcjymski & Sacchi, 1987). Typical yields of total cellular RNA were about 300 μg/200 mg tissue as quantified spectrophotometrically using 40 μg RNA/A260 unit. RNA was denatured in 50% formamide/18% formaldehyde at 55° C. and fractionated by electrophoresis in a 0.9% denaturing formaldehyde agarose gel. Samples were transferred onto a Zetaprobe membrane (Bio-Rad) by capillary method, and the membrane was then baked for 2 hours at 80° C. The membrane was then prehybridized in the presence of 1M NaCl, 10% dextran sulfate, 1% SDS, and 200 μg/ml salmon sperm DNA for at least 2 hours at 65° C. Hybridization was carried out at 65° C. overnight with a random-primer-labeled probe as indicated. The PSA cDNA, and sequence specific hGK-1 and PSA oligonucleotide probes were obtained from Dr. D. Tindall (Mayo Clinic, Rochester, Minn.) (Lundwall & Lilja, 1987). Finally, the membrane was washed under high stringency conditions (0.5×SSC, 1% SDS at 65° C.). Autoradiograms were prepared by exposing Kodak X-Omat AR film to the membrane at -80° C. with intensifying screens.

[2] = prevents clinical use in human treatment; cited from earlier work
[3] = system: prostate tumor cell; settings: both in vitro and in vivo; cited from earlier work

Relative PSA mRNA level ([1]; concentration 0.01 (unit not given)): 1.09
Relative PSA mRNA level ([1]; concentration 0.1 (unit not given)): 1.11
Relative PSA mRNA level ([1]; concentration 1.0 (unit not given)): 1.23
Compound: CCCC(=O)Nc1ncnc2c1ncn2[C@@H]1O[C@@H]2COP(=O)(O)O[C@H]2[C@H]1OC(=O)CCC [dibutyryl cAMP]
steady-state levels of PSA mRNA [1]: no apparent increases

Compound: CC(C)NCC(O)c1ccc(O)c(O)c1 (centres unmarked) [isoproterenol]
Relative PSA mRNA level ([1]; concentration 1 (unit not given)): 1.07
Relative PSA mRNA level ([1]; concentration 10 (unit not given)): 1.11
Relative PSA mRNA level ([1]; concentration 100 (unit not given)): 0.51
steady-state levels of PSA mRNA [1]: no apparent increases

Compound: CNC[C@H](O)c1cccc(O)c1 [phenylephrine]
steady-state levels of PSA mRNA [1]: no apparent increases

Compound: Cc1ccc(C(=O)Nc2ccc(S(=O)(=O)O)c3cc(S(=O)(=O)O)cc(S(=O)(=O)O)c23)cc1NC(=O)c1cccc(NC(=O)Nc2cccc(C(=O)Nc3cc(C(=O)Nc4ccc(S(=O)(=O)O)c5cc(S(=O)(=O)O)cc(S(=O)(=O)O)c45)ccc3C)c2)c1 [suramin]
toxicity in vivo [2]: extreme toxicity
prostate tumor cell growth [3]: inhibit prostate tumor cell growth
